Experimental data as given in patent US4053604A (priority 1975, dated 1977).
Where “and” joins values, the source holds several entries; their conditions need not be identical. Identical values can stand only once.

Columns and labels:
[1] = tail-flick test, potentiation of the analgesic activity of phenoperidine; assay type: in vivo, albino mice
Text: (§1) In the following experiments, phenoperidine and Compound I are used in the form of their hydrochloride salt and droperidol in the form of its free base in the presence of lactic acid for adjustment to pH to 3.4. Results are expressed on the basis of the form of the drug employed (i.e., free base or hydrochloride salt).
(§2) Results of such tests using albino mice are illustrated by tables 1,2 and 3 in which the neuroleptic agent, droperidol, is included for comparative purposes.
Potentiation of the Analgesic Activity (ED50) of Phenoperidine,
i.e. 0.5 mg/kg, by varying Doses of Neuroleptic Agents.
*PD50 refers to the dose of the neuroleptic which increased the
analgesic activity (ED50) of phenoperidine by 50%.
Modified Analgesic Activity of Phenoperidine in
the Presence of the Neuroleptic PD50. -
*ED50 refers to the analgesic activity of phenoperidine after
pretreatment with a fixed dose (PD50) of the neuroleptic agents.

[2] = tail-flick test, analgesic activity of the agent alone; assay type: in vivo, albino mice; details: for ED50: Mus musculus, ip, 0.25 h, i.p., dose which increased analgesia by 50% when tested 15 minutes after drug administration
Text: as §1, §2
*The dose which increased analgesia by 50% when tested 15 minutes after […]

[3] = respiratory minute volume and mean arterial blood pressure in rats; assay type: in vivo
Experimental: These effects are less than those encountered with neuroleptics presently available for NLA as evidenced by laboratory experiments in rats in which these cardiovascular parameters are measured before and after the administration of Compound 1 and the neuroleptic agent droperidol, see Table 8.
The Effect of Compound 1 and Droperidol on Respiratory Minute Volume
and Mean Arterial Blood Pressure

[4] = induction time of rats exposed to halothane anesthesia (loss of righting reflex); assay type: in vivo, male albino rats (Sprague-Dawley)
Experimental: (§3) The effects of Compound I on halothane-induced anesthesia were assessed using 20 rats for each dose or time interval determination. The experiments were performed on male albino rats (Sprague-Dawley) weighing from 180-220 g. A schematic representation of the apparatus used is illustrated in FIG. 1. The apparatus consists of a rectangular box made of transparent plastic (115 cm long × 28 cm high × 28 cm wide) which is divided into 4 equal chambers by perforated walls. The box rotates around a hollow axis through which gases can be delivered at several proportions from cylinders, through their respective flowmeters. An in-line halothane vaporizer is placed just before the gases reach the chambers. There is an air-tight door to every chamber through which two animals, one treated and one control, are introduced. The gases are delivered at one end of the box and suction is applied to the other end to take up the gases after flowing through the chambers. An in-line water manometer monitors the resulting pressure. This pressure is kept at 0-5 mm H2 O to make certain the gases in the anesthetic chambers remain at atmospheric pressure. The mixture of gases is delivered at a rate of 15 l/min. The inhalation anesthetic gases are delivered for ten minutes prior to the introduction of the animals into the chambers to assure an even distribution in the four chambers. The chambers rotate at four rev/min forcing the animals to tumble and allowing the experimenter to accurately time the loss and recovery of the righting reflex. Induction times are recorded as the time interval elapsed between the beginning of exposure of the animals to the gases and the moment in which they lose their righting reflex.
(§4) Groups of control animals (four at a time) were subjected to halothane concentrations ranging from 0.5 to 2.5% in a mixture of 95% O2 -5% CO2, and the induction times thus obtained were used to calculate concentration-reponse curves. Since a certain time elapsed between putting the first and the last rat into their respective chambers, each animal was timed separately with a stopwatch. […] This intermediate concentration of halothane was then used to study the effects of increasing doses of the test compound on the induction times and anesthesia times.
(§5) The animals were pretreated by administering the test compounds in dosages ranging from 10 to 500 μg/kg, i.v., at 5, 30, 60, 120, 240 and 360 minutes prior to their exposure to halothane. As soon as all animals lost their righting reflex, the O2 -halothane flow was discontinued and replaced by an equal flow of air. The animals were allowed to remain in the rotating chambers until they regained their righting reflex. Anesthesia times were determined as the interval between the time required to lose and the time to regain the righting reflex. Air flushing of the anesthetic chambers was performed after each determination and the entire procedure repeated with another group of animals for the determination of the effect of a new dose or concentration.
(§6) Drugs used in this study include: droperidol, phenoperidine hydrochloride, halothane and Compound I in the form of its hydrochloride salt. Phenoperidine hydrochloride and Compound I (hydrochloride) were dissolved separately in a warm solution of 0.9% sodium chloride. Droperidol was suspended in saline with the aid of a drop ot Tween 80 (Tween 80 is a registered trademark for a complex mixture of polyoxyethylene ethers of mixed partial oleic esters of sorbitol anhydride). Dosages are expressed in this study as the salt form of the compound where applicable. When the experimental protocol called for the concomitant administration of two drugs, these were mixed in the syringe and administered intravenously. The drugs were injected in a volume of 0.1 ml/100 g body weight.
(§7) The statistical analysis of the data was performed using Student's […]. […]

[5] = anesthesia time of rats exposed to halothane anesthesia (recovery of righting reflex); assay type: in vivo, male albino rats (Sprague-Dawley); details: phenoperidine hydrochloride 25 μg/kg, i.v.; in words
Experimental: as §3, §4, §5, §6, §7

[6] = behavioral changes and side effects in cebus monkeys; assay type: in vivo; details: for Behavioral Changes / Side Effects / Duration / Onset / times at which the side effect was observed: Phenoperidine, individual monkey

Question: Which “enhancement of analgesic activity of phenoperidine by concomitant administration” value ([1]; in words) does the source give for `O=C(CCCN1CC=C(n2c(=O)[nH]c3ccccc32)CC1)c1ccc(F)cc1` [droperidol, reference compound] here?
Answer: significantly enhanced

Question: What about the “relative potentiating activity, Compound I versus droperidol” value ([1]; in words) of the same molecule?
Answer: equiactive

Question: And the “PD50 of Neuroleptic Agent (dose which increased the analgesic activity (ED50) of phenoperidine by 50%)” value ([1]; mouse, in vivo, ip)?
Answer: 0.55 ± 0.10 mg/kg

Question: What about the ED50 [2] of the same molecule?
Answer: > 30 mg/kg

Question: And the “analgesic activity when given alone” value ([2]; in words)?
Answer: no analgesic activity could be demonstrated

Question: And the “Change in Mean B.P. as % of Control” value ([3]; 25 μg/kg)?
Answer: -28.4 ± 4.6 % of Control

Question: What about the “Change in Minute Volume as % of Control” value ([3]; 25 μg/kg) of the same molecule?
Answer: +13.9 ± 3.0 % of Control

Question: What about the “Change in Mean B.P. as % of Control” value ([3]; 100 μg/kg) of the same molecule?
Answer: -15.4 ± 5.9 % of Control

Question: And the “Change in Minute Volume as % of Control” value ([3]; 100 μg/kg)?
Answer: +15.6 ± 6.2 % of Control

Question: What about the “Change in Mean B.P. as % of Control” value ([3]; 250 μg/kg) of the same molecule?
Answer: -26.9 ± 3.2 % of Control

Question: And the “Change in Minute Volume as % of Control” value ([3]; 250 μg/kg)?
Answer: +27.3 ± 8.1 % of Control

Question: For `FC(F)(F)C(Cl)Br` (centres unmarked) [halothane, reference compound], which “induction time, halothane alone (average)” value ([4]; control experiments, 1% halothane in 95% O2-5% CO2) is on record?
Answer: 2.4 min

Question: Which “effect on induction time of rats anesthetized with halothane” value ([4]; phenoperidine hydrochloride 25 μg/kg, i.v., in words) does the source give for `CCOC(=O)C1(c2ccccc2)CCN(CCC(O)c2ccccc2)CC1` (centres unmarked) [phenoperidine, 1-(3-hydroxy-3-phenylpropyl)-4-phenylisonipecotic acid ethyl ester, reference compound] here?
Answer: did not modify

Question: What about the “effect on anesthesia time of rats anesthetized with halothane” value [5] of the same molecule?
Answer: did not modify

Question: What about the undesirable side effects ([6]; 50-100 μg/kg, in words) of the same molecule?
Answer: salivation and vomiting were consistently observed

Question: And the “Behavioral Changes” value ([6]; 10 μg/kg i.v.)?
Answer: None

Question: What about the “Side Effects” value ([6]; 10 μg/kg i.v.) of the same molecule?
Answer: None

Question: What about the “Behavioral Changes” value ([6]; 50 μg/kg i.v.) of the same molecule?
Answer: Sedation and None

Question: And the Duration ([6]; 50 μg/kg i.v.)?
Answer: 1 h and > 3 h

Question: What about the Onset ([6]; 50 μg/kg i.v.) of the same molecule?
Answer: 5 min

Question: What about the “Side Effects” value ([6]; 50 μg/kg i.v.) of the same molecule?
Answer: Salivation and Vomit and None

Question: What about the “times at which the side effect was observed” value ([6]; 50 μg/kg i.v.) of the same molecule?
Answer: 15 min and 10 to 15 min

Question: What about the “times at which the side effect was observed” value ([6]; 100 μg/kg i.v., Vomit) of the same molecule?
Answer: 5 to 25 min and 20 to 45 min

Question: What about the “Behavioral Changes” value ([6]; 100 μg/kg i.v.) of the same molecule?
Answer: Sedation

Question: What about the Duration ([6]; 100 μg/kg i.v.) of the same molecule?
Answer: 1 h

Question: And the Onset ([6]; 100 μg/kg i.v.)?
Answer: 5 min

Question: What about the “Side Effects” value ([6]; 100 μg/kg i.v.) of the same molecule?
Answer: Vomit

Question: What about the “doses producing the main beneficial effect (sedation) and undesirable side effects” value ([6]; phenoperidine i.v.) of the same molecule?
Answer: 0.05 to 0.1 mg/kg

Question: What about the ED50 [2] of the same molecule?
Answer: 0.5 ± 0.1 mg/kg
